In ChEMBL document CHEMBL6109078, “Pyrylium derivatives as outer membrane permeabilizers against MDR gram-negative bacteria via multi-target mode of action” (Eur J Med Chem, 2025):
Calls of active or inactive are those of the source. The calls are words filed in the database; no cut-off is given here.

Legend:
Acinetobacter baumannii [1] = test: Synergistic antibacterial activity against multi-drug resistant Acinetobacter baumannii clinical isolate 5 assessed as fractional inhibitory concentration index in presence of polymyxin B by checkerboard assay; assay type: functional
Acinetobacter baumannii [2] = test: Synergistic antibacterial activity against multi-drug resistant Acinetobacter baumannii clinical isolate 43 assessed as fractional inhibitory concentration index in presence of gentamycin by checkerboard assay; assay type: functional
Acinetobacter baumannii [3] = test: Synergistic antibacterial activity against Acinetobacter baumannii ATCC 19606 assessed as fractional inhibitory concentration index in presence of amikacin by checkerboard assay; assay type: functional
Escherichia coli [4] = test: Synergistic antibacterial activity against Escherichia coli ATCC 35218 assessed as fractional inhibitory concentration index in presence of polymyxin B by checkerboard assay; assay type: functional
Acinetobacter baumannii [5] = test: Synergistic antibacterial activity against multi-drug resistant Acinetobacter baumannii clinical isolate 14 assessed as fractional inhibitory concentration index in presence of amikacin by checkerboard assay; assay type: functional
Acinetobacter baumannii [6] = test: Synergistic antibacterial activity against multi-drug resistant Acinetobacter baumannii clinical isolate 5 assessed as inhibition of bacterial growth in presence of polymyxin B by checkerboard assay; assay type: functional
Acinetobacter baumannii [7] = test: Antibacterial activity against multi-drug resistant Acinetobacter baumannii clinical isolate 43 assessed as inhibition of bacterial growth by CLSI protocol based method; assay type: functional
Pseudomonas aeruginosa [8] = test: Antibacterial activity Pseudomonas aeruginosa PAO1 assessed as inhibition of bacterial growth by CLSI protocol based method; assay type: functional
Acinetobacter baumannii [9] = test: Antibacterial activity against Acinetobacter baumannii ATCC 19606 assessed as inhibition of bacterial growth by measuring decrease in bacterial count at 6.25 to 50 microg/ml measured after 12 hrs by time-kill kinetics analysis; assay type: functional; details: dose 6.25-50 µg/ml
Escherichia coli [10] = test: Synergistic antibacterial activity against Escherichia coli ATCC 35218 assessed as inhibition of bacterial growth in presence of polymyxin B by checkerboard assay; assay type: functional
Escherichia coli [11] = test: Synergistic antibacterial activity against multi-drug resistant Escherichia coli clinical isolate 1 assessed as fractional inhibitory concentration index in presence of gentamycin by checkerboard assay; assay type: functional
Escherichia coli [12] = test: Synergistic antibacterial activity against Escherichia coli ATCC 25922 assessed as fractional inhibitory concentration index in presence of amikacin by checkerboard assay; assay type: functional
Escherichia coli [13] = test: Antibacterial activity against ESBL positive Escherichia coli ATCC 35218 assessed as inhibition of bacterial growth by CLSI protocol based method; assay type: functional
Escherichia coli [14] = test: Synergistic antibacterial activity against Escherichia coli CG-4 expressing MCR-1 and NDM-1 assessed as fractional inhibitory concentration index in presence of polymyxin B by checkerboard assay; assay type: functional
Acinetobacter baumannii [15] = test: Synergistic antibacterial activity against multi-drug resistant Acinetobacter baumannii clinical isolate 1 assessed as inhibition of bacterial growth by measuring polymyxin B MIC by checkerboard assay; assay type: functional
Escherichia coli [16] = test: Synergistic antibacterial activity against Escherichia coli CG-4 expressing MCR-1 and NDM-1 assessed as inhibition of bacterial growth in presence of polymyxin B by checkerboard assay; assay type: functional
Acinetobacter baumannii [17] = test: Synergistic antibacterial activity against Acinetobacter baumannii ATCC 19606 assessed as fractional inhibitory concentration index in presence of gentamycin by checkerboard assay; assay type: functional
Acinetobacter baumannii [18] = test: Synergistic antibacterial activity against multi-drug resistant Acinetobacter baumannii clinical isolate 14 assessed as inhibition of bacterial growth in presence of polymyxin B by checkerboard assay; assay type: functional
Escherichia coli [19] = test: Synergistic antibacterial activity against Escherichia coli CG-4 expressing MCR-1 and NDM-1 assessed as fractional inhibitory concentration index in presence of gentamycin by checkerboard assay; assay type: functional
Pseudomonas aeruginosa [20] = test: Synergistic antibacterial activity against Pseudomonas aeruginosa assessed as inhibition of bacterial growth in presence of polymyxin B by checkerboard assay; assay type: functional, organism-based
Escherichia coli [21] = test: Synergistic antibacterial activity against Escherichia coli ATCC 25922 assessed as inhibition of bacterial growth by measuring polymyxin B MIC by checkerboard assay; assay type: functional
Acinetobacter baumannii [22] = test: Synergistic antibacterial activity against multi-drug resistant Acinetobacter baumannii clinical isolate 1 assessed as fractional inhibitory concentration index in presence of gentamycin by checkerboard assay; assay type: functional
Acinetobacter baumannii [23] = test: Synergistic antibacterial activity against Acinetobacter baumannii ATCC 19606 assessed as inhibition of bacterial growth in presence of polymyxin B by checkerboard assay; assay type: functional
Acinetobacter baumannii [24] = test: Synergistic antibacterial activity against multi-drug resistant Acinetobacter baumannii clinical isolate 1 assessed as fractional inhibitory concentration index in presence of amikacin by checkerboard assay; assay type: functional
Escherichia coli [25] = test: Synergistic antibacterial activity against Escherichia coli CG-4 expressing MCR-1 and NDM-1 assessed as fractional inhibitory concentration index in presence of […] by checkerboard assay; assay type: functional
Acinetobacter baumannii [26] = test: Antibacterial activity against multi-drug resistant Acinetobacter baumannii clinical isolate 14 assessed as inhibition of bacterial growth by CLSI protocol based method; assay type: functional
Escherichia coli [27] = test: Synergistic antibacterial activity against Escherichia coli ATCC 35218 assessed as fractional inhibitory concentration index in presence of amikacin by checkerboard assay; assay type: functional
Acinetobacter baumannii [28] = test: Synergistic antibacterial activity against multi-drug resistant Acinetobacter baumannii clinical isolate 43 assessed as inhibition of bacterial growth by measuring polymyxin B MIC by checkerboard assay; assay type: functional
Escherichia coli [29] = test: Synergistic antibacterial activity against Escherichia coli ATCC 35218 assessed as inhibition of bacterial growth by measuring polymyxin B MIC by checkerboard assay; assay type: functional
Acinetobacter baumannii [30] = test: Antibacterial activity against Acinetobacter baumannii ATCC 19606 assessed as inhibition of bacterial growth by CLSI protocol based method; assay type: functional
Acinetobacter baumannii [31] = test: Synergistic antibacterial activity against multi-drug resistant Acinetobacter baumannii clinical isolate 43 assessed as fractional inhibitory concentration index in presence of amikacin by checkerboard assay; assay type: functional
Escherichia coli [32] = test: Synergistic antibacterial activity against Escherichia coli CG-4 expressing MCR-1 and NDM-1 assessed as inhibition of bacterial growth by measuring polymyxin B MIC by checkerboard assay; assay type: functional
Escherichia coli [33] = test: Synergistic antibacterial activity against multi-drug resistant Escherichia coli clinical isolate 1 assessed as inhibition of bacterial growth in presence of polymyxin B by checkerboard assay; assay type: functional
Acinetobacter baumannii [34] = test: Synergistic antibacterial activity against multi-drug resistant Acinetobacter baumannii clinical isolate 43 assessed as inhibition of bacterial growth in presence of polymyxin B by checkerboard assay; assay type: functional
Escherichia coli [35] = test: Synergistic antibacterial activity against multi-drug resistant Escherichia coli clinical isolate 1 assessed as fractional inhibitory concentration index in presence of amikacin by checkerboard assay; assay type: functional
Acinetobacter baumannii [36] = test: Antibacterial activity against multi-drug resistant Acinetobacter baumannii clinical isolate 2 assessed as inhibition of bacterial growth by CLSI protocol based method; assay type: functional
Acinetobacter baumannii [37] = test: Synergistic antibacterial activity against multi-drug resistant Acinetobacter baumannii clinical isolate 5 assessed as fractional inhibitory concentration index in presence of gentamycin by checkerboard assay; assay type: functional
Escherichia coli [38] = test: Antibacterial activity against multi-drug resistant Escherichia coli clinical isolate 1 assessed as inhibition of bacterial growth by CLSI protocol based method; assay type: functional
Acinetobacter baumannii [39] = test: Antibacterial activity against multi-drug resistant Acinetobacter baumannii clinical isolate 10 assessed as inhibition of bacterial growth by CLSI protocol based method; assay type: functional
Acinetobacter baumannii [40] = test: Synergistic antibacterial activity against multi-drug resistant Acinetobacter baumannii clinical isolate 5 assessed as inhibition of bacterial growth by measuring polymyxin B MIC by checkerboard assay; assay type: functional
Escherichia coli [41] = test: Synergistic antibacterial activity against Escherichia coli ATCC 25922 assessed as fractional inhibitory concentration index in presence of polymyxin B by checkerboard assay; assay type: functional

Structure (SMILES): CN1CCOc2cc(/C=C/c3cc(C(C)(C)C)[o+]c(C(C)(C)C)c3)ccc21.O=S(=O)([O-])C(F)(F)F
- fractional inhibitory concentration index (FICI) (Acinetobacter baumannii [1]): 0.25
- fractional inhibitory concentration index (FICI) (Acinetobacter baumannii [2]): 0.125
- fractional inhibitory concentration index (FICI) (Acinetobacter baumannii [3]): 0.125
- fractional inhibitory concentration index (FICI) (Escherichia coli [4]): 0.312
- fractional inhibitory concentration index (FICI) (Acinetobacter baumannii [5]): 0.125
- MIC (Acinetobacter baumannii [6]): 6.25 µg/mL
- MIC (Acinetobacter baumannii [7]): 100 µg/mL
- MIC (Pseudomonas aeruginosa [8]): > 100 µg/mL
- Activity (Acinetobacter baumannii [9]): <6 log10CFU/ml
- MIC (Escherichia coli [10]): 6.25 µg/mL
- fractional inhibitory concentration index (FICI) (Escherichia coli [11]): 0.125
- fractional inhibitory concentration index (FICI) (Escherichia coli [12]): 0.125
- MIC (Escherichia coli [13]): 25 µg/mL
- fractional inhibitory concentration index (FICI) (Escherichia coli [14]): 0.156
- MIC (Acinetobacter baumannii [15]): 0.05 µg/mL
- MIC (Escherichia coli [16]): 3.13 µg/mL
- fractional inhibitory concentration index (FICI) (Acinetobacter baumannii [17]): 0.125
- MIC (Acinetobacter baumannii [18]): 12.5 µg/mL
- fractional inhibitory concentration index (FICI) (Escherichia coli [19]): 0.125
- Activity (Pseudomonas aeruginosa [20]): inactive
- MIC (Escherichia coli [21]): 7.8 10^-4 ug/ml
- fractional inhibitory concentration index (FICI) (Acinetobacter baumannii [22]): 0.125
- MIC (Acinetobacter baumannii [23]): 6.25 µg/mL
- fractional inhibitory concentration index (FICI) (Acinetobacter baumannii [24]): 0.125
- fractional inhibitory concentration index (FICI) (Escherichia coli [25]): 0.125
- MIC (Acinetobacter baumannii [26]): 100 µg/mL
- fractional inhibitory concentration index (FICI) (Escherichia coli [27]): 0.125
- MIC (Acinetobacter baumannii [28]): 1 10^-4 ug/ml
- MIC (Escherichia coli [29]): 63 10^-4 ug/ml
- MIC (Acinetobacter baumannii [30]): 50 µg/mL
- fractional inhibitory concentration index (FICI) (Acinetobacter baumannii [31]): 0.125
- MIC (Escherichia coli [32]): 0.031 µg/mL
- MIC (Escherichia coli [33]): 12.5 µg/mL
- MIC (Acinetobacter baumannii [34]): 25 µg/mL
- fractional inhibitory concentration index (FICI) (Escherichia coli [35]): 0.125
- MIC (Acinetobacter baumannii [36]): 100 µg/mL
- fractional inhibitory concentration index (FICI) (Acinetobacter baumannii [37]): 0.125
- MIC (Escherichia coli [38]): ≥ 100 µg/mL
- MIC (Acinetobacter baumannii [39]): 50 µg/mL
- MIC (Acinetobacter baumannii [40]): 0.006 µg/mL
- fractional inhibitory concentration index (FICI) (Escherichia coli [41]): 0.266
